Key:
[1] = tested on: human aortic valve interstitial cells (AVICs); assay: Osteogenic assay: calcification of human AVICs in osteogenic media (Alizarin Red); assay type: cell-based; conditions: for calcification of AVICs: STAT5 inhibitor 10 μM added every two days during osteogenic (OST) treatment, after 21 days of treatment (FIG. 6D)
Procedure: Human cell isolation. Patient-specific lines were established by using the same valves for histopathology, RNA, and cell isolation. Primary aortic valve interstitial cells (AVICs) were obtained from the patient aortic valve. Briefly, leaflets were washed with PBS containing 10 mg/ml gentamicin (GIBCO) and 250 μg/ml fungizone (GIBCO) and dissociated with 0.1% collagenase II at 37 C and 5% of CO2 for 18 hours. Then, the tissue was further dissociated by gently mixing it by pipetting with a serological pipette to ensure the release of A VICs and then passed through a […] filter to remove debris. Cells were pelleted and then resuspended in Dulbecco's Modified Eagle's Medium (DMEM) supplemented with 10% fetal bovine serum (FBS) and 1×penicillin-streptomycin (P/S). Human coronary artery smooth muscle cells (CASMC) were obtained from patient coronary. Briefly, vessels were washed with PBS containing 10 mg/ml gentamicin (GIBCO) and 250 μg/ml fungizone (GIBCO). Vessels were cut open to expose the lumen and intima and adventitia were gently scrapped. Vessels were then sectioned and dissociated with 0.1% collagenase II for 3 hrs. Cells were pelleted and then seed and expanded.
(§1) Cell Culture. AVICs lines were expanded in Dulbecco's Modified Eagle's Medium supplemented with 10% fetal bovine serum and 1×penicillin-streptomycin. Cells were used between passages 4 and 15. Growth media was changed every three days, and cells were split 1:2 when confluent. CASMC lines were expanded in smooth muscle media SMGM (CC-3181) supplemented with BULLETKIT (CC-4149). Human MSCs (PT-2501, Lonza) were expanded on Minimum Essential Medium alpha without nucleosides and supplemented with 10% fetal bovine serum and 1×penicillin-streptomycin and used between passages 4 and 10. Cells are routinely tested for mycoplasma contamination.
(§2) Osteogenic Assay. […]
(§3) Alizarin Red Staining and Quantification. […] Absorbance was at 405 nm using a 96-well plate spectrophotometer.

hCASMC = assay: Osteogenic assay: calcification of human coronary artery smooth muscle cells; assay type: cell-based; conditions: inhibitor 10 μM, osteogenic media, 21 days (FIG. 16D, FIG. 6E)
Procedure: Scalebar 100 μm (middle panel). Quantification of PLA signal is shown on the right graphs. n=4. […] Diagram depicting STAT5 and TERT binding RUNX2 promoter and the positions of the predicted STAT5 binding sites (bottom panel). […] Scalebar 400 μm n=8; means±SD. Quantification of calcification is shown on the right graph. Data is represented as means±SD. P were calculated by Kruskal-Wallis H test with Dunn pairwise comparison post hoc test. Scalebar 400 um. […] When the cells reached confluence, media was replaced with osteogenic media (Minimum Essential Medium alpha with nucleosides, 10% FBS, 1×P/S, 10 mM glycerol phosphate, 50 μM ascorbic acid 2-phosphate, and 100 nM dexamethasone) for 21 days. No treatment media consisted of Minimum Essential Medium alpha with nucleosides, 10% FBS, 1×P/S. Media was replaced every four days.
Quantification of protein levels. n=4 control, n=4 CAVD; means±SD; two-way ANOVA. […] Scalebar 100 um. Quantification of PLA is shown on the right graph. n=4. […] P were calculated by Kruskal-Wallis H test with Dunn pairwise comparison post hoc test. Scalebar 400 um. […] Scalebar 50 um.
Human cell isolation. Patient-specific lines were established by using the same valves for histopathology, RNA, and cell isolation. Primary aortic valve interstitial cells (AVICs) were obtained from the patient aortic valve. […]
Alizarin Red Staining and Quantification. […]

hMSCs = assay: Osteogenic assay: calcification of human mesenchymal stem cells; assay type: cell-based; conditions: inhibitor 10 μM, osteogenic media, 21 days (FIG. 17)
Procedure: When cells reached confluence, media was replaced with osteogenic media (Minimum Essential Medium alpha with nucleosides, 10% FBS 1×P/S, 10 mM glycerol phosphate, 50 uM ascorbic acid 2-phosphate, and 100 nM dexamethasone) for 21 days. No treatment media consisted of Minimum Essential Medium alpha with nucleosides, 10% FBS, 1×P/S. Media was replaced every four days. […] P were calculated by Kruskal-Wallis H test with Dunn pairwise comparison post hoc test. Scalebar 400 μm.
as §1, §2, §3

STAT5A = target: T1, STAT5A (Homo sapiens, UniProt P42229); conditions: as reported; cited from earlier work
T1 sequence (P42229 1-794): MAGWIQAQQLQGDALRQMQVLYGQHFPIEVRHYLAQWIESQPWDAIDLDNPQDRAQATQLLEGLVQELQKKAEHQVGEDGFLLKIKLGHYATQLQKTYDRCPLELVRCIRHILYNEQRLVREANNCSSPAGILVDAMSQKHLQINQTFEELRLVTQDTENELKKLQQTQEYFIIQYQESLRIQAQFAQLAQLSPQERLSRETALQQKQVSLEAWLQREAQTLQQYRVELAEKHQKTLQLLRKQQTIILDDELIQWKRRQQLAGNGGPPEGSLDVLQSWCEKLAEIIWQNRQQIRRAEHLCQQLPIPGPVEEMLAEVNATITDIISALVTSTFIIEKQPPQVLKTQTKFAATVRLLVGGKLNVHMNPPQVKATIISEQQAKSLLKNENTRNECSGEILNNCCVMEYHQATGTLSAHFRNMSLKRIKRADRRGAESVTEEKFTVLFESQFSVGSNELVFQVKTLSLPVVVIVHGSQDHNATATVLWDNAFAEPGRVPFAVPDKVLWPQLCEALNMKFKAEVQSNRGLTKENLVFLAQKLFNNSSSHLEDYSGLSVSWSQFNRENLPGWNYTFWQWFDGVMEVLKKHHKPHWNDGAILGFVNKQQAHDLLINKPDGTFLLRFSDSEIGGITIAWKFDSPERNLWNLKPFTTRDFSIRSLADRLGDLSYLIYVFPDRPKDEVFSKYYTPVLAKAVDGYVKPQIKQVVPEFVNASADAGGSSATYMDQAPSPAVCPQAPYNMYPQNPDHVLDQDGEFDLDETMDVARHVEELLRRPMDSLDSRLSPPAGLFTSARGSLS

SMILES | ability of AVICs to calcify ([1]; BIBR1532 at 1, 10, or 100 nM added every two days during OST treatment, 28 days (FIG. 13C)) | calcification of AVICs [1] | calcification in hCASMC (hCASMC) | calcification in hMSCs (hMSCs) | specific inhibition of STAT5A isoform (STAT5A)
C/C(=C\C(=O)Nc1ccccc1C(=O)O)c1ccc2ccccc2c1 [BIBR1532] | did not alter the ability of AVICs to calcify | – | – | – | –
COc1cc(-c2cc(OP(=O)(O)O)cc(-c3cc(OC)c(OC)c(OC)c3)c2)cc(OC)c1OC [StafiA-1] | – | significantly inhibited calcification | significantly reduced the calcification | significantly reduced the calcification | specifically inhibit
O=C(COc1ccc2cc(C(=O)Nc3ccccc3)ccc2c1)NCc1ccc(OP(=O)(O)O)c(OP(=O)(O)O)c1 [StafiB-1] | – | this inhibition was of a greater extent than the inhibition observed when AVICs were treated with StafiB-1 | did not | – | –

Source: patent publication US20260256761A1, “COMPOSITIONS AND METHODS FOR THE IDENTIFICATION OF INHIBITORS OF AND TREATMENT FOR ECTOPIC CALCIFICATION” (UNIVERSITY OF PITTSBURGH-OF THE COMMONWEALTH SYSTEM OF …, priority 2022, published 2026)
